Results as given in ChEMBL document CHEMBL2440050 (ACS Med Chem Lett, 2013).
Each block holds one compound with its values, some of them ahead of it.

Tests used:
[1] = tested on: NCI-H520; assay: Ratio of vinblastine IC50 to compound IC50 for human NCI-H520 cells by MTS assay; type: functional
[2] = tested on: HCT-116; assay: Ratio of IC50 for vinblastine-resistant human HCT116/VM46 cells overexpressing P-gp to IC50 for vinblastine-sensitive human HCT116 cells by phosphatase assay; type: functional
[3] = tested on: MDA-MB-468; assay: Growth inhibition of human MDA-MB-468 cells after 72 hrs by MTS assay; type: functional, cell-based; conditions: MDA-MB-468, 72 h
[4] = tested on: HCT-116/VM46; assay: Ratio of vinblastine IC50 to compound IC50 for vinblastine-resistant human HCT116/VM46 cells overexpressing P-gp by phosphatase assay; type: functional
[5] = Ratio of vinblastine IC50 to compound IC50 for human SW403 cells by MTS assay; type: functional
[6] = tested on: HCC70; assay: Ratio of vinblastine IC50 to compound IC50 for human HCC70 cells by MTS assay; type: functional
[7] = tested on: ZR-75-1; assay: Ratio of vinblastine IC50 to compound IC50 for human ZR-75-1 cells by MTS assay; type: functional
[8] = tested on: MCF7; assay: Growth inhibition of human MCF7 cells after 72 hrs by MTS assay; type: functional, cell-based; conditions: MCF7, 72 h
[9] = tested on: HCT-116/VM46; assay: Growth inhibition of vinblastine-resistant human HCT116/VM46 cells overexpressing P-gp after 72 hrs by phosphatase assay; type: functional, cell-based; conditions: HCT-116/VM46, 72 h
[10] = tested on: PA-1; assay: Growth inhibition of human PA1 cells after 72 hrs by MTS assay; type: functional, cell-based; conditions: PA-1, 72 h
[11] = tested on: ZR-75-1; assay: Growth inhibition of human ZR-75-1 cells after 72 hrs by MTS assay; type: functional, cell-based; conditions: ZR-75-1, 72 h
[12] = tested on: NCI-H520; assay: Growth inhibition of human NCI-H520 cells after 72 hrs by MTS assay; type: functional, cell-based; conditions: NCI-H520, 72 h
[13] = tested on: L1210; assay: Ratio of vinblastine IC50 to compound IC50 for mouse L1210 cells by phosphatase assay; type: functional
[14] = tested on: HCT-116/VM46; assay: Ratio of vinblastine IC50 to compound IC50 for vinblastine-resistant human HCT116/VM46 cells overexpressing P-gp by MTS assay; type: functional
[15] = Growth inhibition of human LNCaP-FGC cells after 72 hrs by MTS assay; type: functional, cell-based; conditions: LNCaP-Clone-FGC
[16] = tested on: HCC1143; assay: Growth inhibition of human HCC1143 cells after 72 hrs by MTS assay; type: functional, cell-based; conditions: HCC1143, 72 h
[17] = Growth inhibition of human SW403 cells after 72 hrs by MTS assay; type: functional, cell-based; conditions: SW-403, 72 h
[18] = tested on: HCT-116; assay: Ratio of vinblastine IC50 to compound IC50 for vinblastine-sensitive human HCT116 cells by phosphatase assay; type: functional
[19] = tested on: HCT-116; assay: Growth inhibition of vinblastine-sensitive human HCT116 cells after 72 hrs by phosphatase assay; type: functional, cell-based; conditions: HCT-116, 72 h
[20] = tested on: HCT-116; assay: Ratio of vinblastine IC50 to compound IC50 for vinblastine-sensitive human HCT116 cells by MTS assay; type: functional
[21] = Growth inhibition of human KPL4 cells after 72 hrs by MTS assay; type: functional, cell-based; conditions: KPL4, 72 h
[22] = Ratio of vinblastine IC50 to compound IC50 for human KPL4 cells by MTS assay; type: functional
[23] = tested on: HCT-116; assay: Growth inhibition of vinblastine-sensitive human HCT116 cells after 72 hrs by MTS assay; type: functional, cell-based; conditions: HCT-116, 72 h
[24] = tested on: HCT-116/VM46; assay: Growth inhibition of vinblastine-resistant human HCT116/VM46 cells overexpressing P-gp after 72 hrs by MTS assay; type: functional, cell-based; conditions: HCT-116/VM46, 72 h
[25] = tested on: AU565; assay: Ratio of vinblastine IC50 to compound IC50 for human AU565 cells by MTS assay; type: functional
[26] = tested on: L1210; assay: Growth inhibition of mouse L1210 cells after 72 hrs by phosphatase assay; type: functional, cell-based; conditions: L1210, 72 h
[27] = tested on: PA-1; assay: Ratio of vinblastine IC50 to compound IC50 for human PA1 cells by MTS assay; type: functional
[28] = Growth inhibition of human LS 174T cells after 72 hrs by MTS assay; type: functional, cell-based; conditions: LS174T
[29] = Ratio of vinblastine IC50 to compound IC50 for human LNCaP-FGC cells by MTS assay; type: functional
[30] = tested on: T47D; assay: Ratio of vinblastine IC50 to compound IC50 for human T47D cells by MTS assay; type: functional
[31] = tested on: LS174T; assay: Ratio of vinblastine IC50 to compound IC50 for human LS 174T cells by MTS assay; type: functional
[32] = tested on: HCC70; assay: Growth inhibition of human HCC70 cells after 72 hrs by MTS assay; type: functional, cell-based; conditions: HCC70, 72 h
[33] = tested on: AU565; assay: Growth inhibition of human AU565 cells after 72 hrs by MTS assay; type: functional, cell-based; conditions: AU565, 72 h
[34] = tested on: T47D; assay: Growth inhibition of human T47D cells after 72 hrs by MTS assay; type: functional, cell-based
[35] = tested on: MDA-MB-468; assay: Ratio of vinblastine IC50 to compound IC50 for human MDA-MB-468 cells by MTS assay; type: functional
[36] = tested on: HCC1143; assay: Ratio of vinblastine IC50 to compound IC50 for human HCC1143 cells by MTS assay; type: functional
[37] = biological target: Tubulin (Sus scrofa) (UniProt P02554+P02550); assay: Displacement of [3H]-VBL from porcine tubulin after 60 mins relative to control; type: protein assay
[38] = tested on: HCT-116; assay: Ratio of IC50 for vinblastine-resistant human HCT116/VM46 cells overexpressing P-gp to IC50 for vinblastine-sensitive human HCT116 cells by MTS assay; type: functional

Tubulin (Sus scrofa), sequence (P02550 whole entry, looked up): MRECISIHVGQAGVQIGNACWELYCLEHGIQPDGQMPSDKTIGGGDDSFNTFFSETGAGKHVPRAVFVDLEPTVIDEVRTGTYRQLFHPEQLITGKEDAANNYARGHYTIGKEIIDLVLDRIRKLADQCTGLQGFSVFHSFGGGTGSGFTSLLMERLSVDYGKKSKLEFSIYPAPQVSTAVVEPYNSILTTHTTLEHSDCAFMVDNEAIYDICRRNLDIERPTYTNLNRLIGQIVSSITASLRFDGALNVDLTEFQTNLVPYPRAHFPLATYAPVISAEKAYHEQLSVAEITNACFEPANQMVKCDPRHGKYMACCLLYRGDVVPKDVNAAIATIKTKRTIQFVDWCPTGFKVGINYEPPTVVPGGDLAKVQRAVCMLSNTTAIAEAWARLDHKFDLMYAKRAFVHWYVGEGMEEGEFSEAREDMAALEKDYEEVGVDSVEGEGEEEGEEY
Tubulin (Sus scrofa), sequence (P02554 whole entry, looked up): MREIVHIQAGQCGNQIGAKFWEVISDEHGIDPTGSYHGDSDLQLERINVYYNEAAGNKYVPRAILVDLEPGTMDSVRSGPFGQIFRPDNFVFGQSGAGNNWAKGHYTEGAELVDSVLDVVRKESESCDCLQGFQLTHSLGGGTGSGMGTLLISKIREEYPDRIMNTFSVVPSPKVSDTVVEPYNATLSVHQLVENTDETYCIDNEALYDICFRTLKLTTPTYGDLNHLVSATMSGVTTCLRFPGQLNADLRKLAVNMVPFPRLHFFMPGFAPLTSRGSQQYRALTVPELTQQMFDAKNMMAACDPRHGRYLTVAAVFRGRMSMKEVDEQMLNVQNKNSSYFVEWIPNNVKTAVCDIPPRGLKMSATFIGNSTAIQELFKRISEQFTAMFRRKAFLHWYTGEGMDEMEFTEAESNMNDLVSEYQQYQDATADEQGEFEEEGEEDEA

IC50 [9]: 710 nM
IC50 [19]: 3.4 nM
IC50 [26]: 7.7 nM
Compound: CC[C@]1(NC(=O)N2CCN(C)CC2)C[C@H]2CN(CCc3c([nH]c4ccccc34)[C@@](C(=O)OC)(c3cc4c(cc3OC)N(C)[C@H]3[C@@](O)(C(=O)OC)[C@H](OC(C)=O)[C@]5(CC)C=CCN6CC[C@]43[C@@H]65)C2)C1

IC50 [26]: 5.9 nM
Compound: CC[C@]1(NC(=O)NC)C[C@H]2CN(CCc3c([nH]c4ccccc34)[C@@](C(=O)OC)(c3cc4c(cc3OC)N(C)[C@H]3[C@@](O)(C(=O)OC)[C@H](OC(C)=O)[C@]5(CC)C=CCN6CC[C@]43[C@@H]65)C2)C1

IC50 [3]: 4.6 nM
IC50 [8]: > 110 nM
Activity [37]: 50%
IC50 [12]: 4.5 nM
IC50 [16]: 3.8 nM
IC50 [24]: > 110 nM
IC50 [34]: 5 nM
Compound: CC[C@]1(O)C[C@@H]2CN(CCc3c([nH]c4ccccc34)[C@@](C(=O)OC)(c3cc4c(cc3OC)N(C)[C@H]3[C@@](O)(C(=O)OC)[C@H](OC(C)=O)[C@]5(CC)C=CCN6CC[C@]43[C@@H]65)C2)C1 [VINBLASTINE]
IC50 [10]: 4.6 nM
IC50 [11]: 8 nM
IC50 [15]: 5.1 nM
IC50 [17]: 7.9 nM
IC50 [21]: 2.9 nM
IC50 [28]: 19.6 nM
IC50 [32]: 3.5 nM
IC50 [33]: 4 nM

The next lines start with the compound.

Compound: CC[C@]1(NC(=O)N2CC=CCC2)C[C@H]2CN(CCc3c([nH]c4ccccc34)[C@@](C(=O)OC)(c3cc4c(cc3OC)N(C)[C@H]3[C@@](O)(C(=O)OC)[C@H](OC(C)=O)[C@]5(CC)C=CCN6CC[C@]43[C@@H]65)C2)C1
Ratio IC50 [1]: 10
Ratio IC50 [2]: 13
IC50 [3]: 0.4 nM
Ratio IC50 [4]: 80
Ratio IC50 [5]: 10
Ratio IC50 [6]: 10
Ratio IC50 [7]: 10
IC50 [8]: > 12.5 nM
IC50 [9]: 8.4 nM
IC50 [10]: 0.11 nM
IC50 [11]: 0.71 nM
IC50 [12]: 0.17 nM
Ratio IC50 [13]: 10
Ratio IC50 [14]: 10
IC50 [15]: 0.45 nM
IC50 [16]: 0.13 nM
IC50 [17]: 0.5 nM
Ratio IC50 [18]: 10
IC50 [19]: 0.52 nM
Ratio IC50 [20]: 10
IC50 [21]: 0.06 nM
Ratio IC50 [22]: 10
IC50 [23]: 0.22 nM
IC50 [24]: 6.4 nM
Ratio IC50 [25]: 10
IC50 [26]: 0.52 nM
Ratio IC50 [27]: 10
IC50 [28]: 0.46 nM
Ratio IC50 [29]: 10
Ratio IC50 [30]: 10
Ratio IC50 [31]: 10
IC50 [32]: 0.21 nM
IC50 [33]: 0.15 nM
IC50 [34]: 0.51 nM
Ratio IC50 [35]: 10
Ratio IC50 [36]: 10

Compound: CC[C@]1(NC(=O)N2CCOCC2)C[C@H]2CN(CCc3c([nH]c4ccccc34)[C@@](C(=O)OC)(c3cc4c(cc3OC)N(C)[C@H]3[C@@](O)(C(=O)OC)[C@H](OC(C)=O)[C@]5(CC)C=CCN6CC[C@]43[C@@H]65)C2)C1
IC50 [26]: 5.3 nM

Compound: CC[C@]1(NC(=O)N2CCC(c3ccccc3)CC2)C[C@H]2CN(CCc3c([nH]c4ccccc34)[C@@](C(=O)OC)(c3cc4c(cc3OC)N(C)[C@H]3[C@@](O)(C(=O)OC)[C@H](OC(C)=O)[C@]5(CC)C=CCN6CC[C@]43[C@@H]65)C2)C1
IC50 [9]: 55 nM
IC50 [19]: 3.1 nM
IC50 [26]: 5.3 nM

Compound: CC[C@]1(NC(=O)N2Cc3ccccc3C2)C[C@H]2CN(CCc3c([nH]c4ccccc34)[C@@](C(=O)OC)(c3cc4c(cc3OC)N(C)[C@H]3[C@@](O)(C(=O)OC)[C@H](OC(C)=O)[C@]5(CC)C=CCN6CC[C@]43[C@@H]65)C2)C1
Ratio IC50 [1]: 10
Ratio IC50 [2]: 13
IC50 [3]: 0.39 nM
Ratio IC50 [4]: 80
Ratio IC50 [5]: 10
Ratio IC50 [6]: 10
Ratio IC50 [7]: 10
IC50 [8]: > 12.5 nM
Activity [37]: 41.2%
Ratio IC50 [38]: 20
IC50 [9]: 7.5 nM
IC50 [10]: 0.11 nM
IC50 [11]: 0.45 nM
IC50 [12]: 0.1 nM
Ratio IC50 [13]: 10
Ratio IC50 [14]: 10
IC50 [15]: 0.24 nM
IC50 [16]: 0.09 nM
IC50 [17]: 0.45 nM
Ratio IC50 [18]: 10
IC50 [19]: 0.6 nM
Ratio IC50 [20]: 10
IC50 [21]: 0.04 nM
Ratio IC50 [22]: 10
IC50 [23]: 0.16 nM
IC50 [24]: 3.5 nM
Ratio IC50 [25]: 10
IC50 [26]: 0.51 nM
Ratio IC50 [27]: 10
IC50 [28]: 0.45 nM
Ratio IC50 [29]: 10
Ratio IC50 [30]: 10
Ratio IC50 [31]: 10
IC50 [32]: 0.04 nM
IC50 [33]: 0.11 nM
IC50 [34]: 0.41 nM
Ratio IC50 [35]: 10
Ratio IC50 [36]: 10
